Assay results reported in patent US20100041089A1, “IMPROVED METHOD FOR DETECTING CHEMICAL […]” (priority 2006, published 2010).

Test system: yeast genes (expressed mRNA)
Assay: DNA chip measurement of expressed mRNA of yeast genes after culture with a toxic chemical substance
Type: cell-based, Saccharomyces cerevisiae S288C
Description: Yeast (Saccharomyces cerevisiae S288C (a SUC2mal mel gap2 CUP1)) were cultured at 25° C. on YPD medium (yeast extract 1%, polypeptone 2%, glucose 2%). One of toxic chemical substances was added to the cell at logarithmic growth phase, and the cell was further cultured for two hours. Cell was cultured without any chemical substance in the same condition, and was used as a control. Concentrations of the chemical substances were defined to inhibit the growth of the yeast but not lead to death.
After the completion of cultivation, the culture was centrifuged to collect the cells. To the cells, sodium acetate buffer (50 mM sodium acetate, 10 mM EDTA, 1% SDS) was added, and the mixture was shaken at 65° C. for five minutes, followed by returning to room temperature, and obtaining the supernatant, which procedure was repeated two times. To the supernatant, ½ amount of a solution of phenol/chloroform (1:1) was added, and the mixture was centrifuged to give a supernatant, an equal amount of chloroform was added, and the mixture was centrifuged to give a supernatant. To the supernatant, an equal amount of isopropanol containing 0.3 M sodium acetate was added, and the mixture was allowed to stand at room temperature for 30 minutes, after which the mixture was centrifuged to give sediment of the whole RNAs. Seventy % ethanol was added to the sediment, and the mixture was again centrifuged to give sediment, which was then dried and dissolved in water. mRNA was isolated from the whole RNAs as followings. In view of the fact that a poly A chain is attached to the 3′ terminus of mRNA, a polynucleotide having a poly T structure which was immobilized on the surface of latex beads was used to trap the mRNA, and then the mRNA was washed and eluted with spine column (Oligotex-dT30<Super>mRNA Purification Kit, Takara). Reverse transcription of the mRNA was conducted with a reverse transcriptase (Super Script II Reverse Transcriptase; catalogue No. 18064-014, GibcoBRL) using fluorescence-labeled nucleotides to give cDNAs that were introduced with Cy3-dUTP or Cy5-dUTP during the reverse transcription.
The labeled cDNAs were dissolved in TE buffer (10 mM Tris-HCl/1 mM EDTA, pH 8.0), and the solution was dropped on the DNA chip containing the whole genes of yeast (DNA Chip Research Inc. Japan) so that the cDNAs were hybridized on the DNA chip at 65° C. for over 12 hours. The fluoresces intensity of the DNA chip was read with a scanner, and the ratio relative to the fluorescence intensity resulting from the absence of chemical substance was estimated as the following, which is shown in Tables 1 to 9.
In the Tables, “Intensity” indicated in the rightmost column is a value of the level of expressed mRNA of each gene in control cells as divided by the average level of the expressions of the whole genes. A gene of which mRNA level is lower in control, and is higher in cases of addition of chemical substance, is especially useful in the detection of toxic substances.
Here, when a ratio of an amount of mRNA expressed in the presence of the chemical substance to an amount of mRNA expressed in the absence of the chemical substance is two or more, then it is considered significant.

C[S+](C)[O-] [(15), Dimethyl sulfoxide]
The level of expressed mRNA in the presence of chemical substance/The level of expressed mRNA in the absence of chemical substance (yeast gene YDR497C (transport facilitation protein gene)): 10.1
The level of expressed mRNA in the presence of chemical substance/The level of expressed mRNA in the absence of chemical substance (yeast gene YDR511W, cultured two hours with substance): 0.8
The level of expressed mRNA in the presence of chemical substance/The level of expressed mRNA in the absence of chemical substance (yeast gene YDR520C, cultured two hours with substance): 1.3
The level of expressed mRNA in the presence of chemical substance/The level of expressed mRNA in the absence of chemical substance (yeast gene YER014W, mitochondria-located protein gene, cultured two hours with substance): 2.3
The level of expressed mRNA in the presence of chemical substance/The level of expressed mRNA in the absence of chemical substance (yeast gene YER038C, cultured two hours with substance): 0.8
The level of expressed mRNA in the presence of chemical substance/The level of expressed mRNA in the absence of chemical substance (yeast gene YER106W, cultured two hours with substance): 6.8
The level of expressed mRNA in the presence of chemical substance/The level of expressed mRNA in the absence of chemical substance (yeast gene YER175C, cultured two hours with substance): 1.3
level of expressed mRNA in the presence of chemical substance / level in the absence of chemical substance (yeast gene YFR026C, cultured two hours with the chemical substance): 2.3
The level of expressed mRNA in the presence of chemical substance/The level of expressed mRNA in the absence of chemical substance (yeast gene YGL037C, cultured two hours with substance): 0.8
level of expressed mRNA in the presence of chemical substance / level in the absence of chemical substance (yeast gene YGL088W, cultured two hours with the chemical substance): 0.4
The level of expressed mRNA in the presence of chemical substance/The level of expressed mRNA in the absence of chemical substance (yeast gene YGL204C, cultured two hours with substance): 0.8
The level of expressed mRNA in the presence of chemical substance/The level of expressed mRNA in the absence of chemical substance (yeast gene YGL259W, cultured two hours with substance): 1.3
The level of expressed mRNA in the presence of chemical substance/The level of expressed mRNA in the absence of chemical substance (yeast gene YGR010W, cultured two hours with substance): 1.3
level of expressed mRNA in the presence of chemical substance / level in the absence of chemical substance (yeast gene YGR038W, cultured two hours with the chemical substance): 1.1
level of expressed mRNA in the presence of chemical substance / level in the absence of chemical substance (yeast gene YGR139W, cultured two hours with the chemical substance): 2.3
The level of expressed mRNA in the presence of chemical substance/The level of expressed mRNA in the absence of chemical substance (yeast gene YGR141W, cultured two hours with the substance): 2.6
The level of expressed mRNA in the presence of chemical substance/The level of expressed mRNA in the absence of chemical substance (yeast gene YGR142W, cultured two hours with substance): 1.3
The level of expressed mRNA in the presence of chemical substance/The level of expressed mRNA in the absence of chemical substance (yeast gene YGR153W, cultured two hours with substance): 1.3
level of expressed mRNA in the presence of chemical substance / level in the absence of chemical substance (yeast gene YGR243W, cultured two hours with the chemical substance): 0.8
level of expressed mRNA in the presence of chemical substance / level in the absence of chemical substance (yeast gene YGR293C, cultured two hours with the chemical substance): 0.7
level of expressed mRNA in the presence of chemical substance / level in the absence of chemical substance (yeast gene YHL006C, cultured two hours with the chemical substance): 0.6
level of expressed mRNA in the presence of chemical substance / level in the absence of chemical substance (yeast gene YHR095W, cultured two hours with the chemical substance): 0.8
level of expressed mRNA in the presence of chemical substance / level in the absence of chemical substance (yeast gene YHR105W, cultured two hours with the chemical substance): 0.9
The level of expressed mRNA in the presence of chemical substance/The level of expressed mRNA in the absence of chemical substance (yeast gene YHR138C, cultured two hours with substance): 2.2
The level of expressed mRNA in the presence of chemical substance/The level of expressed mRNA in the absence of chemical substance (yeast gene YHR142W): 4.8
level of expressed mRNA in the presence of chemical substance / level in the absence of chemical substance (yeast gene YHR181W, cultured two hours with the chemical substance): 1.4
The level of expressed mRNA in the presence of chemical substance/The level of expressed mRNA in the absence of chemical substance (yeast gene YIL041W, cultured two hours with substance): 1.3
The level of expressed mRNA in the presence of chemical substance/The level of expressed mRNA in the absence of chemical substance (yeast gene YIL060W, cultured two hours with substance): 1.3
The level of expressed mRNA in the presence of chemical substance/The level of expressed mRNA in the absence of chemical substance (yeast gene YIL117C, cultured two hours with substance): 7.5
level of expressed mRNA in the presence of chemical substance / level in the absence of chemical substance (yeast gene YIL127C, cultured two hours with the chemical substance): 0.7
The level of expressed mRNA in the presence of chemical substance/The level of expressed mRNA in the absence of chemical substance (yeast gene YIL143C, DNA repair protein genes, cultured two hours with substance): 1.3
The level of expressed mRNA in the presence of chemical substance/The level of expressed mRNA in the absence of chemical substance (yeast gene YIR041W, cultured two hours with the chemical substance): 1.3
level of expressed mRNA in the presence of chemical substance / level in the absence of chemical substance (yeast gene YJL017W, cultured two hours with the chemical substance): 1.1
The level of expressed mRNA in the presence of chemical substance/The level of expressed mRNA in the absence of chemical substance (yeast gene YJL034W (transport facilitation protein gene)): 7.9
level of expressed mRNA in the presence of chemical substance / level in the absence of chemical substance (yeast gene YJL037W, cultured two hours with the chemical substance): 1.6
The level of expressed mRNA in the presence of chemical substance/The level of expressed mRNA in the absence of chemical substance (yeast gene YJL066C, cultured two hours with substance): 1.3
level of expressed mRNA in the presence of chemical substance / level in the absence of chemical substance (yeast gene YJL097W, cultured two hours with the chemical substance): 1.1
The level of expressed mRNA in the presence of chemical substance/The level of expressed mRNA in the absence of chemical substance (yeast gene YJL108C, cultured two hours with substance): 4.0
The level of expressed mRNA in the presence of chemical substance/The level of expressed mRNA in the absence of chemical substance (yeast gene YJL149W, cultured two hours with substance): 9.0
